Results published in patent publication US10294226B2, “Small molecule inhibitors of the JAK family of kinases” (Janssen Pharmaceutica NV, priority 2016, dated 2019).

What was measured:
MDCK-MDR1 cell line = experiment: MDCK-MDR1 permeability assay; format: in vitro ADME; settings: @ 5 μM, apical to basolateral, with P-gp inhibitor elacridar (2 μM)
P-gp (MDR1) = experiment: MDCK-MDR1 permeability assay; format: in vitro ADME; settings: dog
physchem = settings: thermodynamic from solid
JAK2-JH1JH2 = JAK2-JH1JH2 (Homo sapiens (Human), UniProt O60674); experiment: Enzymatic inhibition assay (HTMS); format: biochemical; settings: read-out: JAK2_I_JH1JH2 IC50
Text: (§1) JAK1-JH1JH2 (574-1154 with a His-GST Tag and a C-terminal tev (ENLYFQ-G) cleavage site), JAK3-JH1JH2 (512-1124 with a GST Tag and a C-terminal tev (ENLYFQ-G) cleavage site), and Tyk2-JH1JH2 (8H_tev_580-1182-C936A-C1142A with a C-terminal tev (ENLYFQ-G) cleavage site) were purified internally. […] LC/MS grade water and acetonitrile (ACN), were purchased from HoneyWell, Burdick & Jackson (Muskegon, Mich., USA). Dimethylsulfoxide 99.8% (DMSO) and trifluoroacetic acid 99.5% (TFA) were purchased from EMD Chemical (Gibbstown, N.J., USA). Adenosine triphosphate (ATP), 4-morpholinepropanesulfonic acid (MOPS), magnesium chloride (MgCl2), ethylenediaminetetraacetic acid (EDTA), dithiothreitol (DTT), formic acid>95% (FA) and Tween-20 were purchased from Sigma (St Louis, Mo., USA). 384-well polypropylene plates, Cat#781280 were purchased from Greiner (Monroe, N.C.), RapidFire™ cartridge A C4 Column (Agilent Technologies, Santa Clara, Calif.).
(§2) The HTMS experiments were performed in positive ionization mode on a RapidFire 300 instrument (Agilent Technologies, Santa Clara, Calif.), coupled with an ABSiex QTrap 4000 system with an Electrospray Ionization source (RF-MS) (Concord, ON, Canada). […] The entire system was operated using the RapidFire software interfaced with Analyst software for the mass spectrometer.
(§3) 11-point dosing series were made for each compound by serially diluting 1:3 or 1:4 in DMSO, with point 12 being a DMSO control. From the serial dilution plates, sample was transferred to a 384 wells assay plate (#781280, Greiner, Monroe, N.C.) using Labcyte Echo (Sunnyvale, Calif.), or Biosero ATS (San Diego, Calif.). The compounds were tested in duplicate. Column 12 was used for positive controls, and column 24 contained negative controls with no enzyme added. A compound from our internal collection, with inhibitory activity for JAK isoforms, was used as a reference compound. The final concentration of DMSO was ≤0.25% in a 20 μL reaction. The enzyme reaction was initiated by the addition of 10 μL of enzyme and ATP mixture to 10 μL of substrate solution prepared in reaction buffer (50 mM MOPS pH 7.5, 10 mM MgCl2, 1 mM EDTA, 2 mM DTT, 0.002% Tween-20). The Tyk2 enzyme was pre-incubated with 2 mM ATP for 30 min prior to the reaction initiation. Immediately after the addition of the enzyme to the reaction mixture, the plate was centrifuged at 1000 rpm for 1 minute and incubated at 25° C. for 45 minutes for JAK3 and 90 minutes for JAK1, JAK2 and Tyk2. The reaction was quenched by the addition of 20 μL of 0.5% TFA containing 0.15 μM of internal standard peptide using Multidrop Combi reagent dispenser (Thermo Scientific, Waltham, Mass.). […] After the quench, the assay plate was centrifuged at 3000 rpm for 3 minutes and sealed with pierceable aluminum foil (Cat#06644-001, Agilent) using a PlateLoc (Agilent Technologies, Santa Clara, Calif.). The plates then were transferred on to the RapidFire for the MS analysis. Compound inhibition was assessed by a decrease of the phosphorylated product levels in sample wells compared to the non-inhibited enzyme reaction.
(§4) The sample analysis on the RapidFire was performed using a mobile phase A1 consisting of Water/TFA/FA (100:0.01:0.1, v/v/v), a mobile phase B1 consisting of ACN/Water/TFA/FA (80:20:0.01:0.1, v/v/v). […] The samples were aspirated directly from the 384-well assay plate and delivered onto RF-MS microscale solid-phase C4 extraction cartridge (Type A). The undesired component such as salt, cofactor, detergent and large protein were washed out and the retained analytes (substrate, product and IS) were coeluted directly onto the AB Siex Qtrap 4000 system.

JAK3-JH1JH2 = JAK3-JH1JH2 (Homo sapiens (Human), UniProt P52333); experiment: Enzymatic inhibition assay (HTMS); format: biochemical; settings: 150 μM ATP; read-out: JAK3_I_JH1JH2 IC50
Text: as §1, §2, §3, §4

JAK1-JH1JH2 = JAK1-JH1JH2 (Homo sapiens (Human), UniProt P23458); experiment: Enzymatic inhibition assay (HTMS); format: biochemical
Text: as §1, §2, §3, §4

Tyk2-JH1JH2 = Tyk2-JH1JH2 (Homo sapiens (Human), UniProt P29597, C1142A/C936A); experiment: Enzymatic inhibition assay (HTMS); format: biochemical; settings: read-out: Tyk2_I_JH1JH2 IC50
Text: as §1, §2, §3, §4

[1] = In vivo oral (p.o.) dosing, plasma and colon concentrations (Protocols 1 and 2); set-up: species or system female C57BL/6 mice; settings: mice, 25 mg/kg p.o.
Method: These protocols are described below under the heading In vivo Studies. Three non-fasted female C57BL/6 mice were orally administered test compound at a dose of 25 mg/kg p.o. as a solution in 20% hydroxypropyl-beta-cyclodextrin (HPβCD) at a dose volume of 5 mL/kg. Blood samples were collected at 0.5, 2, and 4 h post dose via retro-orbital bleed or venipuncture of the dorsal metatarsal vein. Blood samples were collected into tubes containing anticoagulant (Heparin-Na) and placed on wet ice. […] Colon samples were collected at 4 h post dose. […] The colon was further washed by putting it in 5 mL of saline and shaken for 5 seconds. The colon sample was then patted dry, weighed, and homogenized as 1 part tissue (g) to 4 parts HPLC grade water (mL). Concentrations of the compound in plasma and colon homogenate were determined using a qualified liquid chromatography-triple quadrupole mass spectrometry (LC-MS/MS) method. […] Three non-fasted female C57BL/6 mice were orally administered test compound at a dose of 25 mg/kg p.o. as a solution in 20% HPβCD at a dose volume of 5 mL/kg. Blood samples were collected at 0.5, 2, and 4 h post dose via retro-orbital bleed or dorsal metatarsal vein. Blood samples were collected into tubes containing anticoagulant (Heparin-Na) and placed on wet ice. […] Colon samples were collected at 4 h post dose. […] The colon was further washed by putting it in 5 mL of saline and shaken for 5 seconds. The colon sample was then patted dry, weighed, and homogenized as 1 part tissue (g) to 4 parts HPLC grade water (mL). Concentrations of the compound in plasma and colon homogenate were determined using a qualified liquid chromatography-triple quadrupole mass spectrometry (LC-MS/MS) method.

[2] = Polymorph screening, physical stability of crystalline embodiments of compound Ex. 1; format: physicochemical; settings: for physical stability of solid form: ambient conditions; for physical stability of solid form after AAC: 2 days at 40° C./70% RH, HT-XRPD; for physical stability of solid form in climate chamber: four days, HR-XRPD
Method: Long term slurry experiments were performed by suspending compound embodiment 1s in twenty neat solvents and stirred at room temperature for two weeks and at 50° C. for one week. Upon completion of the equilibration time, the residual solids were separated from the mother liquors. The solids were dried under ambient conditions and dried under vacuum (5 mBar) before being analyzed by HT-XRPD. Subsequently, the solids were exposed to accelerated aging conditions (40° C./70% relative humidity) for two days and again analyzed by HT-XRPD.
Embodiment 1s converted to hydrated embodiment 10 when it was exposed to 100% RH at 25° C. […] This behavior is attributable to an unequally strong binding of all the hydration/solvation molecules. In this case, embodiment 10 would have a less strongly bound second water molecule that would be lost under ambient conditions. More precisely, the physical stability of embodiment 1s was investigated in climate chambers by exposing a 20 mg sample of such embodiment to 40° C. and 70% relative humidity for four days, and another 20 mg sample of the same embodiment was exposed also for four days to 25° C. and 100% relative humidity. After four days, the various solid samples were analyzed by HR-XRPD, the crystal cell parameters were determined and the diffractograms were indexed. From bottom to top, the first diffractogram in FIG. 6 corresponds to embodiment 1s as starting material, and the second corresponds to the same form after a 4-day exposure to 40° C. and 70% relative humidity, noted as “1s 70 RH” in the same figure. […] Indexing for such form was not possible due to the small amount in which it was present. The third diffractogram corresponds to embodiment 1s after a 4-day exposure to 25° C. and 100% relative humidity, noted as “10” in the same figure. […] Upon dehydration, both embodiments 1s and 10 re-crystallized to the anhydrous form with a melting point of 148° C.
The mother liquors of the solvent equilibration experiments performed at 50° C. were filtered at 50° C. to remove any particulate matter. The suspensions at 50° C. were filtered using 0.2 μm PTFE filters, and the solutions were placed at 5° C. and aged for 72 hours. When solids had precipitated during aging these solids were separated from the liquid, dried under ambient conditions and under vacuum, and analyzed by HT-XRPD. The remaining mother liquors were allowed to slowly evaporate and the remaining solids were analyzed by HT-XRPD. The samples in which no precipitation occurred were placed under vacuum and the dried solids were analyzed by HT-XRPD. All the solids were then exposed to AAC (2 days at 40° C./70% RH) and re-analyzed by HT-XRPD.
The cooling/evaporative crystallization experiments at μL scale were performed in a 96-well plate, using 12 neat solvents and 12 solvent mixtures and applying four temperature profiles. In each well approximately 4 mg of embodiment 1s was solid dosed. Subsequently, the crystallization solvents (80 μL) and solvent mixtures were added to reach a concentration of 50 mg/mL, and the plate, with each well individually sealed, to subsequently undergo one of the four temperature profiles. Upon completion of the temperature profile the solvents were allowed to evaporate at low ambient pressure (24 hours) and the remaining solids were analyzed by HT-XRPD before and after exposure to AAC for 2 days (40° C./70% RH).
The cooling crystallization experiments with hot filtration were performed from supersaturated solutions of compound Ex. 1 prepared at 50° C. in different solvent mixtures. The hot filtrated solutions underwent a 48-hour cooling profile. The vials in which solids had precipitated after the temperature profile were centrifuged and the solids were separated from the liquid and analyzed by HT-XRPD (after drying under vacuum). If no solids had precipitated the solutions were evaporated under vacuum and the solids analyzed by HT-XRPD. […]

Sequence of JAK1-JH1JH2 (P23458 574-1154): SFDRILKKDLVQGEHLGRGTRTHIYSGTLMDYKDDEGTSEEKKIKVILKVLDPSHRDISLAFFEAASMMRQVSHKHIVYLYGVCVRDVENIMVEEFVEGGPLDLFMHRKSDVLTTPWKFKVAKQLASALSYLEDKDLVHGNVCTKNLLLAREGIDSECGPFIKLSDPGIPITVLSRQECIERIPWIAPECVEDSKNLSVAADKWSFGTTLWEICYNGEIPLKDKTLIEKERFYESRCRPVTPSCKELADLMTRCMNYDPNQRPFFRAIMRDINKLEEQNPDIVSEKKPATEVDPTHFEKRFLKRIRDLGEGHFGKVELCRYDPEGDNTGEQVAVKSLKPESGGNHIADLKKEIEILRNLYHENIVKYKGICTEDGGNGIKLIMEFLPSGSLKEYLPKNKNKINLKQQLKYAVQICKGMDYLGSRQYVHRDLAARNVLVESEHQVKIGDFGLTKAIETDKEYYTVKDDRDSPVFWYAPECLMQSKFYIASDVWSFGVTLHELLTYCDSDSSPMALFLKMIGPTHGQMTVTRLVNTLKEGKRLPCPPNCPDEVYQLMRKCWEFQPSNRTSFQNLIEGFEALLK
Sequence of JAK3-JH1JH2 (P52333 512-1124): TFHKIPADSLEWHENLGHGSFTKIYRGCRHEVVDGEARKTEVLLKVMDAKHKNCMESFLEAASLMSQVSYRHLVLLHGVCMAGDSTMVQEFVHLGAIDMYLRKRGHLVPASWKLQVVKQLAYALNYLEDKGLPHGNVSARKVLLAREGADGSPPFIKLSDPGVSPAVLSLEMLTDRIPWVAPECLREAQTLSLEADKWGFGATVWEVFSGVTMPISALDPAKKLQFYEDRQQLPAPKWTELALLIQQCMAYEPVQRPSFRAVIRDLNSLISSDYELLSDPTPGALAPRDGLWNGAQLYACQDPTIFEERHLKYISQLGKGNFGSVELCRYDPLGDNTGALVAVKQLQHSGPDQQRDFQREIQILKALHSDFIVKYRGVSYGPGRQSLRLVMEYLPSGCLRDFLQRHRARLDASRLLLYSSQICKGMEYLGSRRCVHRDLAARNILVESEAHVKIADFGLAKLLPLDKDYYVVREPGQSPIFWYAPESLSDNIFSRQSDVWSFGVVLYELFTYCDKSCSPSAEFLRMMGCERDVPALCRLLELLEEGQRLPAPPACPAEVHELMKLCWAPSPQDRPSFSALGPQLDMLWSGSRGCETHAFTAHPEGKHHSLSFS
Sequence of Tyk2-JH1JH2 (P29597 580-1182 C936A/C1142A): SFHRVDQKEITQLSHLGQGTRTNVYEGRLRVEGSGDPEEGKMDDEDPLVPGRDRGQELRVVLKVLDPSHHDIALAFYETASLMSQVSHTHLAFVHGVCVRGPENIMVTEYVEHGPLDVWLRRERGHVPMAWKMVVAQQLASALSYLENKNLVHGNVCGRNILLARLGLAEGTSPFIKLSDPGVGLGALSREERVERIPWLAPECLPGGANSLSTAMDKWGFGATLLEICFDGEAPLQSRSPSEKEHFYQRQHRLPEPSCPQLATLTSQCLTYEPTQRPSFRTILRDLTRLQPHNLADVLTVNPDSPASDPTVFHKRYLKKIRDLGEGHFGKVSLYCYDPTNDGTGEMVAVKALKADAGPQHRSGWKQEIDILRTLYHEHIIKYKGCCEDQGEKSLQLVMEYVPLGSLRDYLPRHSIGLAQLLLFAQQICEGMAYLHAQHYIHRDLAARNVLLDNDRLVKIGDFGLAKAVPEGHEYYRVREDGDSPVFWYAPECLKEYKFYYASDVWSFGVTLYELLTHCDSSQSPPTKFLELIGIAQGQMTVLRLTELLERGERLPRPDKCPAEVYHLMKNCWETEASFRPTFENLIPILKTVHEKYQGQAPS

C[C@@H](O)c1nc2cnc3[nH]ccc3c2n1[C@H]1CC[C@H](CC#N)CC1 [C, reference compound]
MDCK-MDR1 P^eapp(A-B) (MDCK-MDR1 cell line): 2.5 10^−6 cm/sec | Papp A→B at 60 min, 5 μM (P-gp (MDR1); MDCK-MDR1, pH 7.4, @ 5 μM, apical to basolateral, without elacridar, read-out: MDCK-MDR1 Papp(A-B)): 0.5 ×10⁻⁶ cm/s | Papp B→A at 60 min, 5 μM (P-gp (MDR1); MDCK-MDR1, pH 7.4, @ 5 μM, basolateral to apical): 23.1 ×10⁻⁶ cm/s | solubility (physchem; pH 6.5, fassif): > 400 µM | solubility (physchem; simulated gastric fluid): > 400 µM | IC50 (JAK2-JH1JH2): […] | IC50 (JAK3-JH1JH2): 49.7 nM | IC50 (JAK1-JH1JH2): < 0.2 nM | IC50 (Tyk2-JH1JH2): 0.2 nM | Plasma Concentration After p.o. Dosing, Mean ([1]; Time = 0.5 h): […] | Plasma Concentration After p.o. Dosing, Mean ([1]; Time = 2 h): […] | Colon Concentration After p.o. Dosing, Mean ([1]; Time = 4 h): […] | Plasma Concentration After p.o. Dosing, Mean ([1]; Time = 4 h): […]

CC(C)(O)CNC(=O)Cc1nc2cnc3[nH]ccc3c2n1[C@H]1CC[C@H](CC#N)CC1 [Embodiment 4]
physical stability of solid form [2]: did not appear to be physically stable

CC(C)(O)CNC(=O)Cc1nc2cnc3[nH]ccc3c2n1[C@H]1CC[C@H](CC#N)CC1 [Embodiment 5]
physical stability of solid form after AAC [2]: physically unstable

CC(C)(O)CNC(=O)Cc1nc2cnc3[nH]ccc3c2n1[C@H]1CC[C@H](CC#N)CC1 [Embodiment 6]
physical stability of solid form after AAC [2]: stable solid form

CC(C)(O)CNC(=O)Cc1nc2cnc3[nH]ccc3c2n1[C@H]1CC[C@H](CC#N)CC1 [Embodiment 7]
physical stability of solid form after AAC [2]: physically stable

CC(C)(O)CNC(=O)Cc1nc2cnc3[nH]ccc3c2n1[C@H]1CC[C@H](CC#N)CC1 [embodiment 1s]
physical stability of solid form in climate chamber ([2]; 25° C. and 100% relative humidity): conversion of embodiment 1s into embodiment 10 | physical stability of solid form in climate chamber ([2]; 40° C. and 70% relative humidity): initial embodiment 1s had been recovered

CC(C)(O)CNC(=O)Cc1nc2cnc3[nH]ccc3c2n1[C@H]1CC[C@H](CC#N)CC1 [embodiment 2]
physical stability of solid form after AAC [2]: converted to embodiment 3e

CC(C)(O)CNC(=O)Cc1nc2cnc3[nH]ccc3c2n1[C@H]1CC[C@H](CC#N)CC1 [embodiment 10]
physical stability of solid form [2]: physically not stable
